Experiment [1] addresses Poly [ADP-ribose] polymerase 1 (Homo sapiens, UniProt P09874). The experiment can be described thus: Inhibition of full length recombinant human N-terminal GST-tagged PARP1 expressed in Baculovirus infected Sf9 cells using TACS-Sapphire as substrate measured after 1 hr by colorimetric assay.
The target of experiment [2] is Poly [ADP-ribose] polymerase 2 (Homo sapiens, UniProt Q9UGN5). Nature of the experiment: Inhibition of recombinant human N-terminal GST-tagged PARP2 (2 to 583 residues) expressed in baculovirus infected Sf9 cells measured after 1 hr by chemiluminescence assay.
Poly [ADP-ribose] polymerase 2, sequence (Q9UGN5 whole entry, the tested form may be a part): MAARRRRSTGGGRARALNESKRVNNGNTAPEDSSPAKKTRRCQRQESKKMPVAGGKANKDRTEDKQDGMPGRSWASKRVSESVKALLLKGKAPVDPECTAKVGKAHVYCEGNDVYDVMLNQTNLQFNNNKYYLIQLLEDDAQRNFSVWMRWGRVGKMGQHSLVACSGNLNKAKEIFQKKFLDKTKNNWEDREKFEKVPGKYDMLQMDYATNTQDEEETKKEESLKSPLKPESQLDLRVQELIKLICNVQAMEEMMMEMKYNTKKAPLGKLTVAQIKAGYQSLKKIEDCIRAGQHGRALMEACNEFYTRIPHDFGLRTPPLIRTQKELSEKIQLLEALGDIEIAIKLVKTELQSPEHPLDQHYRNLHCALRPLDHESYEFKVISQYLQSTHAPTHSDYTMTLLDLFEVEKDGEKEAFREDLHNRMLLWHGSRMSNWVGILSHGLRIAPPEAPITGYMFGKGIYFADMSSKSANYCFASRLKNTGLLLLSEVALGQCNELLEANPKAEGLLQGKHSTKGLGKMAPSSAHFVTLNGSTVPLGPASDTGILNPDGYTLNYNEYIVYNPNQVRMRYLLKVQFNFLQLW
In experiment [3] the target is T1, Poly [ADP-ribose] polymerase tankyrase-1 (Homo sapiens, UniProt O95271).
T1 sequence (O95271 whole entry): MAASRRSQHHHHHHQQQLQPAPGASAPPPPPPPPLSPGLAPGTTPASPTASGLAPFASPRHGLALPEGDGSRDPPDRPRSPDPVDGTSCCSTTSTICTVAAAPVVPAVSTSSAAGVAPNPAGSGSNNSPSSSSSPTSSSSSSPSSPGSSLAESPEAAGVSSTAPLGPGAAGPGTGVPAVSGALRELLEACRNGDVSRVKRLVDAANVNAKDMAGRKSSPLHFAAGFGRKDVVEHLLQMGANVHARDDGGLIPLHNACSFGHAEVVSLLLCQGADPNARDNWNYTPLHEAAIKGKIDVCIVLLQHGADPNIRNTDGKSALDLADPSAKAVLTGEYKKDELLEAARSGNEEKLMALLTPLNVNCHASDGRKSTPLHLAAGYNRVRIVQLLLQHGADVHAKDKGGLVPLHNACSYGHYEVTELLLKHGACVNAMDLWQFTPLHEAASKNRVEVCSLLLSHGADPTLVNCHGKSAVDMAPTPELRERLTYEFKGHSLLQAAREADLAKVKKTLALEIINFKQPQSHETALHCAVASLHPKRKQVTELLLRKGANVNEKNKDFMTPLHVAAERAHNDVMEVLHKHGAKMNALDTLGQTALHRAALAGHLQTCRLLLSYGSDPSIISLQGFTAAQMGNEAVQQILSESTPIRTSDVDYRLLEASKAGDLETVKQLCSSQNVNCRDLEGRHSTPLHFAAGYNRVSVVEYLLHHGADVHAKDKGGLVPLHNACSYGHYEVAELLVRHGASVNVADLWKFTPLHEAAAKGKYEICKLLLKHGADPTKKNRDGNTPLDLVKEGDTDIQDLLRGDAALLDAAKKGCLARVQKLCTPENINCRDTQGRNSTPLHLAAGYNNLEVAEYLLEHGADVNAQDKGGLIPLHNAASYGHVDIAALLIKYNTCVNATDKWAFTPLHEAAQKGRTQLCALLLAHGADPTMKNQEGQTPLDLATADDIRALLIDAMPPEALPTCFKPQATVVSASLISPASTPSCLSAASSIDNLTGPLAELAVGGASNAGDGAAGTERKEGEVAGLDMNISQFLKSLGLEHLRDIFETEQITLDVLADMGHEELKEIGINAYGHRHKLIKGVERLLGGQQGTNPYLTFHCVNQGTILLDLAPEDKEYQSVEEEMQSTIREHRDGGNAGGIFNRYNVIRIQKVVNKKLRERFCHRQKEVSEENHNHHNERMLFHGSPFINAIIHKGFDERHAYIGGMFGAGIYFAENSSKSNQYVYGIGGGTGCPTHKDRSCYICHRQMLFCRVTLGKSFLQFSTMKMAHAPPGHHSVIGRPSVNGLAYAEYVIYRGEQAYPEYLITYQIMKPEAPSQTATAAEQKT
The experiment can be described thus: Inhibition of recombinant human N-terminal GST-tagged TNKS1 (1001 to 1327 residues) expressed in baculovirus infected sf9 cells using TACS-Sapphire as substrate measured after 30 mins by colorimetric assay.

In experiment [4] the target is T2, Poly [ADP-ribose] polymerase tankyrase-2 (Homo sapiens, UniProt Q9H2K2).
T2 sequence (Q9H2K2 whole entry): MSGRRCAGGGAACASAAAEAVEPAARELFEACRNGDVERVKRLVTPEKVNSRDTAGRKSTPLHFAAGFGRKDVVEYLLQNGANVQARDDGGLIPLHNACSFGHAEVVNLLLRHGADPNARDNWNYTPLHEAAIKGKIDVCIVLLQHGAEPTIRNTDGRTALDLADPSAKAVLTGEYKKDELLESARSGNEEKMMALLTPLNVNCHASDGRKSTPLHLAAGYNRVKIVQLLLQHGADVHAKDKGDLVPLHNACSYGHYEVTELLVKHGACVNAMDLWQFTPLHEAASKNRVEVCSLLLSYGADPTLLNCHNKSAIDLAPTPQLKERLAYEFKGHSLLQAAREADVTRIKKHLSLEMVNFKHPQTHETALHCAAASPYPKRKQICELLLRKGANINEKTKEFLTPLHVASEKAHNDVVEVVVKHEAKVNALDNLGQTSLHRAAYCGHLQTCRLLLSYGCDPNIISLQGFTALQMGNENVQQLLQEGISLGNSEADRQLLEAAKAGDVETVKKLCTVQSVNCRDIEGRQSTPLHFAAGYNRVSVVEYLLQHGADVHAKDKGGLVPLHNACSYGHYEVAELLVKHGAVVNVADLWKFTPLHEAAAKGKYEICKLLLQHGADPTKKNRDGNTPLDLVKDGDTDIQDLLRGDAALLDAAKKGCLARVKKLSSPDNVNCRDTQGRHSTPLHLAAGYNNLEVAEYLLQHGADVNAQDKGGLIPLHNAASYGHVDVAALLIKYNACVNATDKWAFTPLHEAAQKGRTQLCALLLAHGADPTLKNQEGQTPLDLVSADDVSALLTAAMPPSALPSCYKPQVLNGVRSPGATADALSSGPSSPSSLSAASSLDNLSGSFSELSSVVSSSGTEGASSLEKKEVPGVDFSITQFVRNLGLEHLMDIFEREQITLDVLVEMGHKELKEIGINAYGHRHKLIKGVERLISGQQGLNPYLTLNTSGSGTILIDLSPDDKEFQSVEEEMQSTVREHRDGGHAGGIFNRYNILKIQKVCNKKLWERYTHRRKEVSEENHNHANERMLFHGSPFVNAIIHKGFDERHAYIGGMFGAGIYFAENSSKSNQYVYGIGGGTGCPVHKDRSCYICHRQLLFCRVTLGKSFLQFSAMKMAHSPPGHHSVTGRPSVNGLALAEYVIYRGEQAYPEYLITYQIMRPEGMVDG
Nature of the experiment: Inhibition of recombinant human N-terminal His-GST-tagged TNKS2 (849 to 1166 residues) expressed in baculovirus infected Sf9 cells using biotinylated NAD+ as substrate measured after 2 hrs.

SMILES strings stand for the structures.

Poly [ADP-ribose] polymerase 1, sequence (P09874 whole entry, the tested form may be a part): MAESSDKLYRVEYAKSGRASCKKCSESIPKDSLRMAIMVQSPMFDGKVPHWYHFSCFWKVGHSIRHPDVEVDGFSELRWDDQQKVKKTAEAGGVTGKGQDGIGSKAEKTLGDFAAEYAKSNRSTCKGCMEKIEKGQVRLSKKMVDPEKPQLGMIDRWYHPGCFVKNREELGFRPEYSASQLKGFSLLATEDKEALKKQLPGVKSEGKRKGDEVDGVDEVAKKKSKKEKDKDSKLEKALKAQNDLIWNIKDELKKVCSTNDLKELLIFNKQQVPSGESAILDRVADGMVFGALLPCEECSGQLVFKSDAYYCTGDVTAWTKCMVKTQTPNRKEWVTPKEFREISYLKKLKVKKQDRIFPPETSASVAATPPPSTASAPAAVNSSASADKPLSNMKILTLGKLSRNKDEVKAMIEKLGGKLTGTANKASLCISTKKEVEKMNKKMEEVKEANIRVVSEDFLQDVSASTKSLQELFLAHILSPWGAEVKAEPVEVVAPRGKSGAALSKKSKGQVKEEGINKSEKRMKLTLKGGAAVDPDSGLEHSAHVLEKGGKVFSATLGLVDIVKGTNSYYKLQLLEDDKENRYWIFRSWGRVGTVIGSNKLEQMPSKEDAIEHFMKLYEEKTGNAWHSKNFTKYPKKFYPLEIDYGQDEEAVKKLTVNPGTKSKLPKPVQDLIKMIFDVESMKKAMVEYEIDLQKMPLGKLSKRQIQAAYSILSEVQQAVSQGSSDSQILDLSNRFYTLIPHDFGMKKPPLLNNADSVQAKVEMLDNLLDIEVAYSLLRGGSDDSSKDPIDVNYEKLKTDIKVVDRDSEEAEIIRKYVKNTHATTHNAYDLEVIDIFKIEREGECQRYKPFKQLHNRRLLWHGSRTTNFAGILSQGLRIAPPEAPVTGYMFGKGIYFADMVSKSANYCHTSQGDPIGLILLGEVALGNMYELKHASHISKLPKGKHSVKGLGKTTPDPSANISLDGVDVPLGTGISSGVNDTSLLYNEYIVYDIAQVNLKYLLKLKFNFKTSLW

As to `Cc1cccc2c(=O)[nH]c(CCC(=O)O)nc12`, the IC50 is 1 µM in experiment [1] (read-out: IC50); 6.61 µM in experiment [1] (read-out: pIC50 (converted)); 0.145 µM in experiment [2]; greater than 100 µM in experiment [3]; greater than 100 µM in experiment [4].
In the case of `O=C(Nc1cccc2cccnc12)c1ccc(N2C(=O)[C@@H]3[C@@H]4CC[C@@H](C4)[C@@H]3C2=O)cc1`, the IC50 in experiment [1] (read-out: IC50) was greater than 100 µM; in experiment [2] it was greater than 100 µM; in experiment [3], 0.343 µM.
In the case of `Nc1ccc(C(=O)Nc2cccc3cccnc23)cc1`, the IC50 in experiment [1] (read-out: IC50) and in experiment [3] was greater than 100 µM each time.
`O=C(O)CCc1nc(O)c2ccccc2n1`: the IC50 is 6.7 µM in experiment [1] (read-out: IC50), 0.125 µM in experiment [2], greater than 100 µM in experiment [3] and greater than 100 µM in experiment [4].

For the origin of these results see ChEMBL document CHEMBL4002591 (J Med Chem, 2017).
